Paper PMC12586182 (Frontiers in Oncology, 2025)

Columns and labels:
Assay in all cases: Kinase panel profiling at 1 µmol/L (mobility shift assay, Carna)
Format in all cases: biochemical
Settings in all cases: 1 µmol/L of BTK inhibitor
MARK1 = target: T1, MARK1 (Homo sapiens, UniProt Q9P0L2)
T1 construct: purchased Carna Biosciences

KDR = target: T2, KDR (Homo sapiens, UniProt P35968)
T2 construct: purchased Carna Biosciences

PKACγ = target: T3, PKACγ (Homo sapiens, UniProt P22612)
T3 construct: purchased Carna Biosciences

CRIK = target: T4, CRIK (Homo sapiens, UniProt O14578)
T4 construct: purchased Carna Biosciences

NEK1 = target: T5, NEK1 (Homo sapiens, UniProt Q96PY6)
T5 construct: purchased Carna Biosciences
T5 sequence (Q96PY6 1-1258): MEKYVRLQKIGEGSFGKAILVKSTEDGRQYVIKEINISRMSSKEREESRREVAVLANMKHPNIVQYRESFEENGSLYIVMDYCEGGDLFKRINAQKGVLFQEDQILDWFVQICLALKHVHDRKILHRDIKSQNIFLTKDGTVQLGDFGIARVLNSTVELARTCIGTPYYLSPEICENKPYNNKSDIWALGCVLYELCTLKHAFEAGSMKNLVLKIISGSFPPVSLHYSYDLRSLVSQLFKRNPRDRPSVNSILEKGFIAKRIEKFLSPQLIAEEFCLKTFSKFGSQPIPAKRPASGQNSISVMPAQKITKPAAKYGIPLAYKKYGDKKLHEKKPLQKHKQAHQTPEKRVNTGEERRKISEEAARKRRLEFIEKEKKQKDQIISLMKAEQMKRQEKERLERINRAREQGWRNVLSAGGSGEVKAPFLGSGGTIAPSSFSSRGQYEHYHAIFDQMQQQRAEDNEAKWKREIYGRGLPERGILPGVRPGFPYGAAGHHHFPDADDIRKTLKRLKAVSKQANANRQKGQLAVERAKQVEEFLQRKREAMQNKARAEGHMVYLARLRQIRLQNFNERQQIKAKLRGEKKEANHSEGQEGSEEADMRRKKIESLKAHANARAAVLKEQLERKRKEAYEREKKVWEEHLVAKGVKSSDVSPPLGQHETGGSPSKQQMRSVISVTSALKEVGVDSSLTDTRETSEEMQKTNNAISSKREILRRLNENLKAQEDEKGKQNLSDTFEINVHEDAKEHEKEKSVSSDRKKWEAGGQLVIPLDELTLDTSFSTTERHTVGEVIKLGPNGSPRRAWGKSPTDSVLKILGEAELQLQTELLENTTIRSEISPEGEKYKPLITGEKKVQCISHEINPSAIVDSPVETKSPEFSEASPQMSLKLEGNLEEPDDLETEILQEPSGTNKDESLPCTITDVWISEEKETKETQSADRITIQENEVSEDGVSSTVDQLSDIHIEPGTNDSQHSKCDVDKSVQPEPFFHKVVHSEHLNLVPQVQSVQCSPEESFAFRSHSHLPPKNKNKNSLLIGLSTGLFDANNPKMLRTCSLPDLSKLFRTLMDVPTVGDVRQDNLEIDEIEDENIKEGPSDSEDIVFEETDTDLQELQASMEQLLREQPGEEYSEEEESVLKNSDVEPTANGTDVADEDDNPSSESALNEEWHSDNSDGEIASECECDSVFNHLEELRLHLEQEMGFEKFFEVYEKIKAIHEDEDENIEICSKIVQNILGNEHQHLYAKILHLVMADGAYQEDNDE

EPHA6 = target: T6, EPHA6 (Homo sapiens, UniProt Q9UF33)
T6 construct: purchased Carna Biosciences
T6 sequence (Q9UF33 23-1036): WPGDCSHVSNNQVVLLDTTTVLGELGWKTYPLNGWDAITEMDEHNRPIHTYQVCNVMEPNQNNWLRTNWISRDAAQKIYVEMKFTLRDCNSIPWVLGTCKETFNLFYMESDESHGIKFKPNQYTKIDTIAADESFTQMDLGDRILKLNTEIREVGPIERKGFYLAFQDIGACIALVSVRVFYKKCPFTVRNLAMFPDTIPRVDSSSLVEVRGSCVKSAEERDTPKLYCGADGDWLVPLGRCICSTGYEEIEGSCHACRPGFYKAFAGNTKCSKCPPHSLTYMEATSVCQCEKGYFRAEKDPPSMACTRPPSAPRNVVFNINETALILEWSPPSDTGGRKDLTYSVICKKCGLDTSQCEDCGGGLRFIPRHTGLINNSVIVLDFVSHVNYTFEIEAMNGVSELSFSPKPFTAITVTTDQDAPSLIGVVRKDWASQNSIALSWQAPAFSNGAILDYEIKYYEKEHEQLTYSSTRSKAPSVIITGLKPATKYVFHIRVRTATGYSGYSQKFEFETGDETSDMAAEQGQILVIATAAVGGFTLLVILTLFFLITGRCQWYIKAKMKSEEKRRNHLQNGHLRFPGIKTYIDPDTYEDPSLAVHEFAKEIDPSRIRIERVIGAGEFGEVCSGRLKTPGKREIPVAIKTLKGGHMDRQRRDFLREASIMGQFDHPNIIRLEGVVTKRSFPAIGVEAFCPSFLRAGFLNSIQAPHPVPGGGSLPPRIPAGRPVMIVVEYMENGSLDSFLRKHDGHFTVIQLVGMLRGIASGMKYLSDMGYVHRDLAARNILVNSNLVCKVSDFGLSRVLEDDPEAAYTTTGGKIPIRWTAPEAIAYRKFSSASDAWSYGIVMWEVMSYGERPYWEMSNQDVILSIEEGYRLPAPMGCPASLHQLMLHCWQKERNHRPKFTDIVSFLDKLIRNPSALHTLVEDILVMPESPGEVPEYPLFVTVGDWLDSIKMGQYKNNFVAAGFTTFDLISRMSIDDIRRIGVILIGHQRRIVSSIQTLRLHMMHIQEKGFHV

HER4 = target: T7, HER4 (Homo sapiens, UniProt Q15303)
T7 construct: purchased Carna Biosciences

JNK3 = target: T8, JNK3 (Homo sapiens, UniProt P53779)
T8 construct: purchased Carna Biosciences
T8 sequence (P53779 whole entry): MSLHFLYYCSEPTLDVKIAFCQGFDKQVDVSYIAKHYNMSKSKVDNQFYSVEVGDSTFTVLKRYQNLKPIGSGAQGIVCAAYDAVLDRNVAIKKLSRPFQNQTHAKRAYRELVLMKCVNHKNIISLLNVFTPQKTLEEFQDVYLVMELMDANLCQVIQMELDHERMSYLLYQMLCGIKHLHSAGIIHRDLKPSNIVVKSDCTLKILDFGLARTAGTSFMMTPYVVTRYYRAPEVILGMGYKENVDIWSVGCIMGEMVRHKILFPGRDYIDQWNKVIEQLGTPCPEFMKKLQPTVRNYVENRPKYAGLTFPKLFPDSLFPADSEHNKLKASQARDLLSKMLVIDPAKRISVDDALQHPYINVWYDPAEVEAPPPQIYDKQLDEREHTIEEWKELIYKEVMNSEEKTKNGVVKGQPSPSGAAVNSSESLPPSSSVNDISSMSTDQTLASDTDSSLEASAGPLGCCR

T4 sequence (O14578 whole entry): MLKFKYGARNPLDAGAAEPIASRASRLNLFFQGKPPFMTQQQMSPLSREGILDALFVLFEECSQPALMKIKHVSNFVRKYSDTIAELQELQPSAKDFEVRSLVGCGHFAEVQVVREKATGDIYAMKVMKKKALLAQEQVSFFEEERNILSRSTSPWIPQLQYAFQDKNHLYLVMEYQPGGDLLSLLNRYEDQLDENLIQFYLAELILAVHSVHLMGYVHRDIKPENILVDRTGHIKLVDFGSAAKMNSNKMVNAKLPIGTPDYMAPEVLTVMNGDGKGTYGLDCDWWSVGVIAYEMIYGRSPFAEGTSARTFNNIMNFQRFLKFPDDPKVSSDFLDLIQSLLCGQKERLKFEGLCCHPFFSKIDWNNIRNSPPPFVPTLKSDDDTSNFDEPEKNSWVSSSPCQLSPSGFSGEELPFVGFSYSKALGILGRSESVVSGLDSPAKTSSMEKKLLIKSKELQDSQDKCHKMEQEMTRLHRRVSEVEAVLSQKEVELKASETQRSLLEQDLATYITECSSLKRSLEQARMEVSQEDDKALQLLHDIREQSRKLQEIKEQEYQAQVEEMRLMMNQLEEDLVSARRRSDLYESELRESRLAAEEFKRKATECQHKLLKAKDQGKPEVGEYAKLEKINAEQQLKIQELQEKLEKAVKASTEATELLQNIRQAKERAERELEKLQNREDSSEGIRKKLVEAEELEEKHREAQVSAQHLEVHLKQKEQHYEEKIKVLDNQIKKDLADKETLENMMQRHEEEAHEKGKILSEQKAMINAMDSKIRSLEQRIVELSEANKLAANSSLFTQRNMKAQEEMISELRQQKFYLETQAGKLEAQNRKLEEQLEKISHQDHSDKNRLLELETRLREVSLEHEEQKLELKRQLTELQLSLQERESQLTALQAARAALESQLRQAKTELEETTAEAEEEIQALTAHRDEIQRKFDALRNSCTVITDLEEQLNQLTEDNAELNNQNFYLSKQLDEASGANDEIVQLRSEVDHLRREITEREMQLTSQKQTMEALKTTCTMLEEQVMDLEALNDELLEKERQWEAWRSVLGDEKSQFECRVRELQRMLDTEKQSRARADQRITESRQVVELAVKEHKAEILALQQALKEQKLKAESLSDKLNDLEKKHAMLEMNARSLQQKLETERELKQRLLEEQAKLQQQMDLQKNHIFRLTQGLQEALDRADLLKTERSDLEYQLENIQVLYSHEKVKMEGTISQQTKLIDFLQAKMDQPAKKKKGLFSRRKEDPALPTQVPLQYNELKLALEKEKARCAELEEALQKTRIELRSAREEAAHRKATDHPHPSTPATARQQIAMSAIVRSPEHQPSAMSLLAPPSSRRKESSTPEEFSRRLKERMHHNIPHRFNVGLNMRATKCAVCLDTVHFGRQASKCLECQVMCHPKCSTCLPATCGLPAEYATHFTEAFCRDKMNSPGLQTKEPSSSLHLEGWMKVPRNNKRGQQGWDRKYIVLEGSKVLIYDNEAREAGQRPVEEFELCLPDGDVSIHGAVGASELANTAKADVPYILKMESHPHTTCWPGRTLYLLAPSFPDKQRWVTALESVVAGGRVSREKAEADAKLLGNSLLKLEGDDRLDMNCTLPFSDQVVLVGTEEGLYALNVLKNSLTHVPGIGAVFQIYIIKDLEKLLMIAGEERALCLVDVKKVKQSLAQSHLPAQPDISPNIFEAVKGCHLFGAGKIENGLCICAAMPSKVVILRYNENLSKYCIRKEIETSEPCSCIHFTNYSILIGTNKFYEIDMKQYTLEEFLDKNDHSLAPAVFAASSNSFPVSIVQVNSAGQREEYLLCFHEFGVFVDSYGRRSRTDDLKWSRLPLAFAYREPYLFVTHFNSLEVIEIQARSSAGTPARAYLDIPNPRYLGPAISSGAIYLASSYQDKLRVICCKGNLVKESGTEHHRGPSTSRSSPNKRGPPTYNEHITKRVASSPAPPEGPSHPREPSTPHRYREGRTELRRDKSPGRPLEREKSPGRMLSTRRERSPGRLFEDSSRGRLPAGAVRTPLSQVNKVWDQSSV
T7 sequence (Q15303 26-1308): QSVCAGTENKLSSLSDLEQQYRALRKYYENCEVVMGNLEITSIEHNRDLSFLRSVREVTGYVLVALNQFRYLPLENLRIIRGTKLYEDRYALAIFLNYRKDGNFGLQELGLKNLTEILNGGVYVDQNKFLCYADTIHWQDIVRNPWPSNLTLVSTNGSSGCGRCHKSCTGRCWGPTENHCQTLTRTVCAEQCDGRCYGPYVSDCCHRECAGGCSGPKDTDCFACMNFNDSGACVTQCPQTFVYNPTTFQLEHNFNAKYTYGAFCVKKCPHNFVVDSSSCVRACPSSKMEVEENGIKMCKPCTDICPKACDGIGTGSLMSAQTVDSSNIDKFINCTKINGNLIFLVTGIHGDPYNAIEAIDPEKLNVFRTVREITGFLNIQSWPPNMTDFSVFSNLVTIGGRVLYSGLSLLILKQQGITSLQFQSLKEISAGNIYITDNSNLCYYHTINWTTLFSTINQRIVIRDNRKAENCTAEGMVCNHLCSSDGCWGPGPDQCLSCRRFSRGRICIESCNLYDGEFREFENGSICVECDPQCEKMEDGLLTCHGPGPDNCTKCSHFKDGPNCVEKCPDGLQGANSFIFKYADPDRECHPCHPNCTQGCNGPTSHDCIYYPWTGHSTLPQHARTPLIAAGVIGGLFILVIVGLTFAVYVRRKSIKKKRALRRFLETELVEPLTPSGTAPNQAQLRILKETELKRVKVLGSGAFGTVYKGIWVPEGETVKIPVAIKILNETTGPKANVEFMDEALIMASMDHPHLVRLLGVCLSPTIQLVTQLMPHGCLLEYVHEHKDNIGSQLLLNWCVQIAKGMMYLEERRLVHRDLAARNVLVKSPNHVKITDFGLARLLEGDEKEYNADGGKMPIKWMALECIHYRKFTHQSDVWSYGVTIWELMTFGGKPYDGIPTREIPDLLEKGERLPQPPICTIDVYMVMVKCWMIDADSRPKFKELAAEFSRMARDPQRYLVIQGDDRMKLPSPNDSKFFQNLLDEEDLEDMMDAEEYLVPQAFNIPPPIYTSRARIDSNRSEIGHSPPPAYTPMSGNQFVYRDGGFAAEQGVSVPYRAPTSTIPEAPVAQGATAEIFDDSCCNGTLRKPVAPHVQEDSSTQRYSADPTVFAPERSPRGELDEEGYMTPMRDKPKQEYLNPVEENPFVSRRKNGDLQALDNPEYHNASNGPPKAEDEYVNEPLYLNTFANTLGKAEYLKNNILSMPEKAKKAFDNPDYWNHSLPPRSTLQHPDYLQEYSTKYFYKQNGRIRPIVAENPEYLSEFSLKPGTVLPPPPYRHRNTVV
T2 sequence (P35968 20-1356): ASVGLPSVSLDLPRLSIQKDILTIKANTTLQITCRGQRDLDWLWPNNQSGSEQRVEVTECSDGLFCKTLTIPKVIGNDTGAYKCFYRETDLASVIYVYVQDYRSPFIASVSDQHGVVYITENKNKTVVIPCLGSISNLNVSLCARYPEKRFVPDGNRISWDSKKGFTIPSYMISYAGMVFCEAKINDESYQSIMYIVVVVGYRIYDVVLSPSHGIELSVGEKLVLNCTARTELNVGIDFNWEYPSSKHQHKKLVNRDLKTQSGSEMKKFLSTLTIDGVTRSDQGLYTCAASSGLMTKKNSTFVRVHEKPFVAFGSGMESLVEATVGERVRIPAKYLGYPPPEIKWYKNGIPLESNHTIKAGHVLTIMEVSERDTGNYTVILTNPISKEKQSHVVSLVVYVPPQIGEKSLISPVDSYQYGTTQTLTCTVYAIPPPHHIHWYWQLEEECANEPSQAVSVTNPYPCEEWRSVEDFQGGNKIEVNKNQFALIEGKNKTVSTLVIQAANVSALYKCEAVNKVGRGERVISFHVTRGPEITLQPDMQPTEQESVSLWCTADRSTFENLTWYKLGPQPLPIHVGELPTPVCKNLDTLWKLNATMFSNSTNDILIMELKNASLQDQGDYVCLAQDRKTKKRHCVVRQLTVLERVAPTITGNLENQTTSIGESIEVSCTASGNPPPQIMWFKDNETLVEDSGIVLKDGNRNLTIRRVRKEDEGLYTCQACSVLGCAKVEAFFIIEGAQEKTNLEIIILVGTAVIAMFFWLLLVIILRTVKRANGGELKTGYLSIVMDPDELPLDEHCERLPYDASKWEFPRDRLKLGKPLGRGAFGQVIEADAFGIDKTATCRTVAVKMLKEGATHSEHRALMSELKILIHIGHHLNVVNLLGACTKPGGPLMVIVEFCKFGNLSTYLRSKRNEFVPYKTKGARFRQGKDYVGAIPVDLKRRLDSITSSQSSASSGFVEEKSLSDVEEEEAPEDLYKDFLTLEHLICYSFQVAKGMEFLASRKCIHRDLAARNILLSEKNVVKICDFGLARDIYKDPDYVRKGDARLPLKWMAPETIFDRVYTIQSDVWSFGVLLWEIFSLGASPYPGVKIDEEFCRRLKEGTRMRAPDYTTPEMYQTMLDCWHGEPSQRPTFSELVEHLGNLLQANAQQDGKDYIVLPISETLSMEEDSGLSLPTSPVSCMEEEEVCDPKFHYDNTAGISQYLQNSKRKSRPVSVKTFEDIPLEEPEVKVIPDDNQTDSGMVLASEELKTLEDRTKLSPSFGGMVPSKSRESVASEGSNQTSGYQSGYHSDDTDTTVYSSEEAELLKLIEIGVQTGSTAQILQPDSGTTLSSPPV

| SMILES | Percentage inhibition of kinase enzyme activity (MARK1) [%] | Percentage inhibition of kinase enzyme activity (KDR) [%] | Percentage inhibition of kinase enzyme activity (PKACγ) [%] | Percentage inhibition of kinase enzyme activity (CRIK) [%] | Percentage inhibition of kinase enzyme activity (NEK1) [%] | Percentage inhibition of kinase enzyme activity (EPHA6) [%] | Percentage inhibition of kinase enzyme activity (HER4) [%] | Percentage inhibition of kinase enzyme activity (JNK3) [%] |
| --- | --- | --- | --- | --- | --- | --- | --- | --- |
| CC#CC(=O)N1CCC[C@H]1c1nc(-c2ccc(C(=O)Nc3ccccn3)cc2)c2c(N)nccn12 [acalabrutinib] | -3.49 | 6.81 | 1.68 | -5.14 | -7.46 | -2.37 | 77.61 | -0.89 |
| C=CC(=O)N1CCC[C@@H](n2nc(-c3ccc(Oc4ccccc4)cc3)c3c(N)ncnc32)C1 [ibrutinib] | 2.46 | 83.54 | 4.90 | -0.17 | 3.73 | 92.64 | 98.60 | 0.98 |
| O=C(c1ccc(Oc2ccccc2)cc1Cl)c1c[nH]c2ncnc(N[C@@H]3CC[C@@H](CO)OC3)c12 [nemtabrutinib] | 2.15 | 80.64 | 11.12 | -5.26 | -1.75 | 49.03 | 95.14 | -2.93 |
| COc1ccc(F)cc1C(=O)NCc1ccc(-c2nn([C@@H](C)C(F)(F)F)c(N)c2C(N)=O)cc1 [pirtobrutinib] | -8.44 | -1.66 | 1.36 | -3.77 | -2.24 | 6.36 | 69.88 | 0.49 |
| C=CC(=O)N1CCC([C@@H]2CCNc3c(C(N)=O)c(-c4ccc(Oc5ccccc5)cc4)nn32)CC1 [zanubrutinib] |  | -4.47 |  |  |  | 0.76 | 2.98 |  |
